From patent US10059741B2 (priority 2015, dated 2018)
Like-named read-outs stand apart in the source and are kept apart here. Bridge positions count the residues as written; N and C are the ends. Square brackets hold non-standard residues; d marks the D form. Peptide text beside a SMILES is read from it. S5 = C=CCCC[C@](C)(N)C(=O)O; Nle = CCCC[C@H](N)C(=O)O; Aib = CC(C)(N)C(=O)O

Experiments:
H3N2 Perth/16/2009 [1] = assay: microbe, parasite or virus in culture; format: cell-based, influenza A virus; settings: read-out: EC50 (μM) H3N2 Perth/16/2009
H1N1 California/07/2009 [2] = assay: microbe, parasite or virus in culture; format: cell-based, influenza A virus
H3N2 Perth/16/2009 [3] = assay: microbe, parasite or virus in culture; format: cell-based, influenza A virus; settings: read-out: EC50 (μM) H3N2 Perth/16/2009; remark: listed apart in the source
in vitro = settings: dog
H1N1 California/07/2009 [4] = assay: microbe, parasite or virus in culture; format: cell-based, influenza A virus; remark: listed apart in the source
[5] = read-out: EC50 (μM) H1N1 California/07/2009
[6] = CC50 (μM) H1N1 California/07/2009, Cell cytotoxicity (CC), run with H1N1 California/07/2009
[7] = CC50 (μM) H3N2 Perth/16/2009, Cell cytotoxicity (CC), run with H3N2 Perth/16/2009
[8] = CC50, MDCK cells, run with Influenza A H1N1 California/07/2009, Neutral Red
[9] = CC50, MDCK cells, run with Influenza A H1N1 California/07/2009, Visual
[10] = CC50, run with Influenza A H1N1 California/07/2009, Neutral Red
[11] = CC50, run with Influenza A H1N1 California/07/2009, Visual
[12] = CC50, run with Influenza A H3N2 Perth/16/2006 (so in the source), Neutral Red
[13] = CC50, run with Influenza A H3N2 Perth/16/2006 (so in the source), Visual

Row | SMILES | EC50 (H3N2 Perth/16/2009 [1]) [µM] | EC50 (H1N1 California/07/2009 [2]; [5]) [µM] | EC50 (H3N2 Perth/16/2009 [3]) [µM] | CC50 (in vitro; [6]) [µM] | CC50 (in vitro; [7]) [µM] | CC50 (in vitro; [8]) [µM] | CC50 (in vitro; [9]) [µM] | EC50 (H1N1 California/07/2009 [4]; [5]) [µM] | CC50 (in vitro; [10]) [µM] | CC50 (in vitro; [11]) [µM] | CC50 (in vitro; [12]) [µM] | CC50 (in vitro; [13]) [µM] | EC50 (H1N1 California/07/2009 [2]; read-out: EC50) [µM] | EC50 (H1N1 California/07/2009 [4]; read-out: EC50) [µM]
1 | CCCC[C@H](NC(C)=O)C(=O)N[C@@H](CC(=O)O)C(=O)N[C@H](C(=O)N[C@@H](CC(N)=O)C(=O)N[C@@]1(C)CCCC=CCCC[C@@](C)(C(=O)N[C@@H](CC(C)C)C(=O)N[C@@H](C)C(=O)N[C@H](C(=O)NC(C)(C)C(=O)N[C@@H](C)C(=O)N[C@@H](CCC(N)=O)C(=O)N[C@@H](C)C(=O)N[C@@H](C)C(N)=O)C(C)C)NC(=O)[C@H](CC(C)C)NC(=O)[C@H](CC(C)C)NC(=O)[C@H]([C@@H](C)O)NC1=O)C(C)C [SP-7] (Ac-[Nle]DVN[S5]TLL[S5]LAV[Aib]AQAA-NH2; staple 5-9) | 25 to 50 | 10 to 25 | 25 to 50 | > 100 | > 100 | > 100 | > 100 | 10 to 25 |  |  |  |  |  | 
2 | CCCC[C@H](NC(C)=O)C(=O)N[C@@H](CC(=O)O)C(=O)N[C@H](C(=O)N[C@@H](CC(N)=O)C(=O)N[C@@]1(C)CCCC=CCCC[C@@](C)(C(=O)N[C@@H](CC(C)C)C(=O)N[C@@H](C)C(=O)N[C@H](C(=O)NC(C)(C)C(=O)N[C@@H](C)C(=O)N[C@@H](CCC(N)=O)C(=O)N[C@@H](C)C(=O)N[C@H](C)C(N)=O)C(C)C)NC(=O)[C@H](CC(C)C)NC(=O)[C@H](CC(C)C)NC(=O)[C@H]([C@@H](C)O)NC1=O)C(C)C [SP-16] (Ac-[Nle]DVN[S5]TLL[S5]LAV[Aib]AQA[dA]-NH2; staple 5-9) | 25 to 50 | 10 to 25 | 25 to 50 | > 100 | > 100 | > 100 | > 100 | 10 to 25 |  |  |  |  |  | 
3 | CCCC[C@H](NC(C)=O)C(=O)N[C@@H](CC(=O)O)C(=O)N[C@H](C(=O)N[C@@H](CC(N)=O)C(=O)N[C@@]1(C)CCCC=CCCC[C@@](C)(C(=O)N[C@@H](CC(C)C)C(=O)N[C@@H](C)C(=O)N[C@H](C(=O)NC(C)(C)C(=O)N[C@@H](C)C(=O)N[C@@H](CCC(N)=O)C(=O)N[C@@H](C)C(=O)N[C@H](C)C(=O)O)C(C)C)NC(=O)[C@H](CC(C)C)NC(=O)[C@H](CC(C)C)NC(=O)[C@H]([C@@H](C)O)NC1=O)C(C)C [SP-17] (Ac-[Nle]DVN[S5]TLL[S5]LAV[Aib]AQA[dA]-OH; staple 5-9) | 10 to 25 | 25 to 50 | 10 to 25 | > 100 | > 100 | > 100 | > 100 | 25 to 50 |  |  |  |  |  | 
4 | CCCC[C@H](NC(C)=O)C(=O)N[C@@H](CC(=O)O)C(=O)N[C@H](C(=O)N[C@@H](CC(N)=O)C(=O)N[C@@]1(C)CCCC=CCCC[C@@](C)(C(=O)N[C@@H](CC(C)C)C(=O)N[C@@H](C)C(=O)N[C@H](C(=O)N[C@@H](CCC(N)=O)C(=O)NC(C)(C)C(=O)N[C@@H](CCC(N)=O)C(=O)N[C@@H](C)C(=O)N[C@@H](C)C(N)=O)C(C)C)NC(=O)[C@H](CC(C)C)NC(=O)[C@H](CC(C)C)NC(=O)[C@H]([C@@H](C)O)NC1=O)C(C)C [SP-19] (Ac-[Nle]DVN[S5]TLL[S5]LAVQ[Aib]QAA-NH2; staple 5-9) | 1.5 to 10 | 1.5 to 10 | 1.5 to 10 | > 100 | > 100 |  |  | 1.5 to 10 | > 100 | > 100 | > 100 | > 100 |  | 
5 | CCCC[C@H](NC(C)=O)C(=O)N[C@@H](CC(=O)O)C(=O)N[C@H](C(=O)N[C@@H](CC(N)=O)C(=O)N[C@@]1(C)CCCC=CCCC[C@@](C)(C(=O)N[C@@H](CC(C)C)C(=O)N[C@@H](C)C(=O)N[C@H](C(=O)N[C@@H](CCC(N)=O)C(=O)N[C@@H](C)C(=O)N[C@@H](CCC(N)=O)C(=O)NC(C)(C)C(=O)N[C@@H](C)C(N)=O)C(C)C)NC(=O)[C@H](CC(C)C)NC(=O)[C@H](CC(C)C)NC(=O)[C@H]([C@@H](C)O)NC1=O)C(C)C [SP-20] (Ac-[Nle]DVN[S5]TLL[S5]LAVQAQ[Aib]A-NH2; staple 5-9) | 1.5 to 10 | 25 to 50 | 1.5 to 10 | > 100 | > 100 |  |  | 10 to 25 | > 100 | > 100 | > 100 | > 100 |  | 
6 | CCCC[C@H](NC(C)=O)C(=O)N[C@@H](CC(=O)O)C(=O)N[C@H](C(=O)N[C@@H](CC(N)=O)C(=O)N[C@@]1(C)CCCC=CCCC[C@@](C)(C(=O)N[C@@H](CC(C)C)C(=O)N[C@@H](C)C(=O)N[C@H](C(=O)N[C@@H](CCC(N)=O)C(=O)N[C@@H](C)C(=O)NC(C)(C)C(=O)N[C@@H](C)C(=O)N[C@@H](C)C(N)=O)C(C)C)NC(=O)[C@H](CC(C)C)NC(=O)[C@H](CC(C)C)NC(=O)[C@H]([C@@H](C)O)NC1=O)C(C)C [SP-23] (Ac-[Nle]DVN[S5]TLL[S5]LAVQA[Aib]AA-NH2; staple 5-9) | 1.5 to 10 | 1.5 to 10 | 1.5 to 10 | > 100 | > 100 |  |  | 1.5 to 10 | > 100 | > 100 | > 100 | > 100 | 4.2 | 4.3
